Laboratory results published in patent US20250049735A1, “MEDICINE FOR STEATOHEPATITIS” (The University of Tokyo, priority 2021, published 2025).
Where two headings read alike, the source gives them in different places.

Experiments:
ATP8B1+CDC50A = target: T1, ATP8B1+CDC50A (Homo sapiens, UniProt O43520); assay: Flippase (ATP8B1) assay: incorporation of NBD-phospholipids into CHO-K1 cells; assay type: cell-based; settings: 15° C.
T1 construct: expressed in transfected cells; host or cells: CHO-K1 cells (CCL-61, ATCC), transiently transfected with PEI MAX
T1 sequence (O43520 1-1251): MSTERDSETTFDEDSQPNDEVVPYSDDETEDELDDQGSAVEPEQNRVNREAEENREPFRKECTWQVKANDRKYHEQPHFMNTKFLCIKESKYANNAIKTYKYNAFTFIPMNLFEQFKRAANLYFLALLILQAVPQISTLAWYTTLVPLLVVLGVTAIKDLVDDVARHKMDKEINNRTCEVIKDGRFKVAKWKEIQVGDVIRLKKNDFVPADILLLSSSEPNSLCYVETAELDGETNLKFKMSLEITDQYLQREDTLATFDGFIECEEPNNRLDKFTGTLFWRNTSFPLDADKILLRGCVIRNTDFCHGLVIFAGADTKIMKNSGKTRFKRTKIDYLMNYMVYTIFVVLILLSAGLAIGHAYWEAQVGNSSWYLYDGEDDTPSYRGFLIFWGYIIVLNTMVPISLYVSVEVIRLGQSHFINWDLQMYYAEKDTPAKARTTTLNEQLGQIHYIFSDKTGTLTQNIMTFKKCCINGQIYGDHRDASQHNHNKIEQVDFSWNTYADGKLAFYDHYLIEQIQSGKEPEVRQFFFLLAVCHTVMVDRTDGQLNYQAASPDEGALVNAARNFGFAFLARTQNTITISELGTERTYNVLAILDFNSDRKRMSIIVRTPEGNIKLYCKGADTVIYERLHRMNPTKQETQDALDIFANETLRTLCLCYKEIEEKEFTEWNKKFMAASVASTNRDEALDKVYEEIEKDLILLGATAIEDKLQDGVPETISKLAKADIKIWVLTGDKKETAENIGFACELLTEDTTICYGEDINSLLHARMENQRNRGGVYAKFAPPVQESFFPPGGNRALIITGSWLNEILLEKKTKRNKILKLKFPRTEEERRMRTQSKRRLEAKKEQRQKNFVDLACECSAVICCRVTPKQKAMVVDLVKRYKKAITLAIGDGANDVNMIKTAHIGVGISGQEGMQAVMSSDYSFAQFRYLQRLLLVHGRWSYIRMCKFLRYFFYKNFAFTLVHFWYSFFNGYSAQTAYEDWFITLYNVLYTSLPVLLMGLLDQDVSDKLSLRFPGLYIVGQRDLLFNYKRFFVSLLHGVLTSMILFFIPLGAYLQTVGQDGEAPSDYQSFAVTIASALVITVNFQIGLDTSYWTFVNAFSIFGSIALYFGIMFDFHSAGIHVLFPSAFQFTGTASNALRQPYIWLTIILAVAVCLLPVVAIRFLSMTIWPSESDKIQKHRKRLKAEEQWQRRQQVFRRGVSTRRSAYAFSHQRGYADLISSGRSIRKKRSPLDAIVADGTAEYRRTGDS
T1 sequence (Q9NV96 1-361 partner): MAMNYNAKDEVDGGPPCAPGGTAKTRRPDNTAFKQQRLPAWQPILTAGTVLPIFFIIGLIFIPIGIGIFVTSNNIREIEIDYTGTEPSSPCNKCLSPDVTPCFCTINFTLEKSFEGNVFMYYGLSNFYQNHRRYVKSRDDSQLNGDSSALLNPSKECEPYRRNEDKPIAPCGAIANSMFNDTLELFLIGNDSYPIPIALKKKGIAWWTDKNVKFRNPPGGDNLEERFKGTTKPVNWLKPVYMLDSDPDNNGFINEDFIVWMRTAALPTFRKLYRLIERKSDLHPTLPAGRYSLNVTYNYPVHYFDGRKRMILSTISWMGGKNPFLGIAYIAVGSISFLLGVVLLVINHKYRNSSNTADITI
Experimental: The experiment regarding incorporation of NBD-phospholipids into cells was carried out according to the previous reports (Suzuki et al., Nature 468, 834-838 2010; Takatsu et al., J. Biol. Chem., 289:33543-33556 2014).
To allow CDC50A alone, or ATP8B1 and CDC50A, to express in CHO-K1 cells, the CHO-K1 cells (CCL-61, ATCC, Manassas, VA) were transfected with the plasmids (pShuttle-EV, or pShuttle-ATP8B1-FLAG and pShuttle-HA-CDC50A), using PEI MAX (Polysciences, Warrington, PA). Forty-eight hours after the transfection, the cells were detached from dishes and were collected in PBS containing 5 mM EDTA, and thereafter, the cells were recovered in a precipitate by centrifugation. The cells (2×10^6 cells/sample) were washed and were then equilibrated at 15° C. for 15 minutes in 500 μL of HBSS (14025092, Thermo Fisher Scientific). An equal volume of 1 μg/mL 18:1-06:0 NBD-PC (810132, Avanti Polar Lipids) or 10 μg/mL 12:0 LysoNBD-PC (810128P: Avanti Polar Lipids) was added to the cell suspension, and the obtained mixture was then incubated at 15° C. Thereafter, at each time point, 300 μL of a cell suspension was collected, and was mixed with 300 μl of HBSS (ice cold) containing 5% fatty acid-free BSA (A6003: Sigma-Aldrich) to extract NBD-lipids incorporated into the exoplasmic leaflet of the plasma membrane as well as unincorporated NBD-Lipids.
Next, 10,000 cells were analyzed with a BD FACSCelesta (BD Bioscience, San Jose, CA) to measure the fluorescence of NBD-lipids incorporated into the cytoplasmic leaflet of the plasma membrane. The mean value of the fluorescence intensities per cell was calculated. Propidium iodide (P378: DOJINDO, Kumamoto, Japan) positive cells were excluded from the analysis.

Tax-iIEC-KO mice = settings: 8 to 10 weeks of age
Source text: Atp8b1^flox/flox mice were mated with villin-Cre/ERT2 transgenic mice (Stock No. 020282; The Jackson Laboratory), and Atp8b1^flox/+; villin-Cre/ERT2 mice in the obtained offsprings were then mated with Atp8b1^flox/flox mice to obtain Tamoxifen-induced, intestinal epithelial cell (IEC)-specific Atp8b1 knockout (Atp8b1Tax-iIEC-KO: Atp8b1^flox/flox; villin-Cre/ERT2) mice (Atp8b1 Tax-iIEC-KO mice). The resulting Atp8b1 Tax-iIEC-KO mice and littermate Atp8b1^flox/flox mice were used for animal experiments.
ALT and AST were determined by automatic measurement with Dri-chem (FUJIFILM, Tokyo, Japan).
The concentrations of choline, betaine, dimethylglycine (N,N-dimethylglycine) and glycerophosphorylcholine (sn-glycero-3-phosphocholine) in plasma were determined by liquid chromatography/tandem mass spectrometry (LC/MS/MS) assay. The sample was mixed with 98-fold volume of ethanol and 1-fold volume of the internal standard (IS) solution (10 μmol/L choline in water, 10 μmol/L glycerophosphorylcholine in water, and 1 μmol/L betaine in water). After vortex mixing, the sample was centrifuged at 21,500×g at 4° C. for 5 minutes. The obtained supernatant was injected into a UHPLC Nexera liquid chromatography system (Shimadzu co., Kyoto, Japan) equipped with an Ascentis Express HILIC column (2.1×50 mm, 2.7 μm, Merck KGaA, Darmstadt, Germany), and was then maintained at 4° C. The analyte was separated from the internal standard by gradient elution of mobile phase A (10 mmol/L ammonium acetate in water) and of mobile phase B (acetonitrile/water mixture) (99:1, v/v)). The gradient elution was carried out under the following conditions: 0-2 min., 82.5% B; 2-4 min., 82.5% to 5% B and 4-7 min. 5% B with a flow rate of 0.6 mL/min. The eluate was directly subjected to electrospray ionization under a positive ion mode using a 5500QTRAP mass spectrometer (Sciex pte. ltd., Toronto, Canada). All target molecules were scanned by selected reaction monitoring (SRM) mode.
Eight-week-old Tax-iIEC-KO mice and control mice were started to be orally administered with a normal saline, or with 50 mg/kg, 150 mg/kg or 500 mg/kg chloride choline, three times a day, and at the same time, the Tax-iIEC-KO mice and the control mice were administered with 1 mg/day of Tamoxifen for 5 consecutive days. Oral administration with a normal saline, or with 50 mg/kg, 150 mg/kg or 500 mg/kg chloride choline, three times a day, was continued, and thereafter, the mice were dissected at 10 weeks of age. The doses of 150 mg/kg and 500 mg/kg were determined by estimating the amount of choline consumed by the 0.3% choline supplemented diet group and the 1% choline supplemented diet group based on the daily food intake of mice.

ATP8B1 KO Caco-2 cells = assay: Cytotoxicity test (LDH release) in ATP8B1 KO Caco-2 cells; settings: ATP8B1 KO Caco-2 cell line; 24 hours; various concentrations
Experimental: (§1) Caco-2 cells were cultured in DMEM (Dulbecco's modified Eagle's medium) (11995-065, Thermo Fisher Scientific) supplemented with 10% fetal bovine serum (10437, Thermo Fisher Scientific), 1% nonessential amino acids (11140-050, Thermo Fisher Scientific), 1% penicillin and streptomycin (15140-122, Thermo Fisher Scientific). The cells were cultured under conditions of 37° C., 5% CO2 and a humidity of 95%.
(§2) 5 mM Edelfosine dissolved in ethanol (CAY-60912-10, Cayman), 10 mg/mL lysophosphatidylcholine (LysoPC) dissolved in water/ethanol (1:1, v/v) (123-03781, FUJIFILM Wako Pure Chemical), and 10 mg/mL lysophosphatidylethanolamine (LysoPE) (L4754, Sigma-Aldrich) dissolved in ethanol were prepared as stock solutions. Caco-2 cells and ATP8B1 KO Caco-2 cells were seeded on 96-well plates at a cell density of 50,000 cells/well, and were then cultured, while replacing the medium with a fresh medium every 2 days. After 7 days of the culture, the cells were cultured for 24 hours in a new medium supplemented with various concentrations of edelfosine, lysophosphatidylcholine and lysophosphatidylethanolamine. Cytotoxicity was measured using, as an indicator, the amount of lactate dehydrogenase (LDH) released from the injured cells into the medium. The amount of LDH in the medium was measured using the Cytotoxicity LDH Assay Kit-WST (CK12, Dojindo) according to the instructions included therewith.

Caco-2 cells = assay: Cytotoxicity test (LDH release) in wild-type Caco-2 cells; settings: wild-type Caco-2 cell line; 24 hours; various concentrations
Experimental: as §1, §2

[1] = to such an extent that extension of autologous liver survival was expected; cited from earlier work
[2] = CHO-K1 cells expressing functional ATP8B1 (ATP8B1+CDC50A)
[3] = CHO-K1 cells without ATP8B1 expression (EV)
[4] = oral 50 mg/kg three times a day
[5] = oral 150 mg/kg three times a day
[6] = oral 500 mg/kg three times a day

18:1-06:0 NBD-PC
incorporation of NBD-lipid into the cells (flow cytometry) (ATP8B1+CDC50A; [2]): incorporated into the cells
incorporation of NBD-lipid into the cells (flow cytometry) (ATP8B1+CDC50A; [3]): incorporated into the cells in reduced amounts

C[N+](C)(C)CCOP(=O)([O-])OCC(O)COC(=O)CCCCCCCCCCCNc1ccc([N+](=O)[O-])c2nonc12 (stereo not shown) [NBD-LysoPC, 12:0 LysoNBD-PC]
incorporation of NBD-lipid into the cells (flow cytometry) (ATP8B1+CDC50A; [2]): incorporated into the cells
incorporation of NBD-lipid into the cells (flow cytometry) (ATP8B1+CDC50A; [3]): incorporated into the cells in reduced amounts

C[N+](C)(C)CCO.[Cl-] [chloride choline]
body weight loss of the Tax-iIEC-KO mice (Tax-iIEC-KO mice; [4]): suppression
concentration of betaine in the liver (Tax-iIEC-KO mice; [4]): recovered up to the same level as those in the control mice
concentration of choline in the liver (Tax-iIEC-KO mice; [4]): recovered up to the same level as those in the control mice
liver injury markers (AST and ALT) (Tax-iIEC-KO mice; [4]): normalization
body weight loss of the Tax-iIEC-KO mice (Tax-iIEC-KO mice; [5]): suppression
concentration of betaine in the liver (Tax-iIEC-KO mice; [5]): recovered up to the same level as those in the control mice
concentration of choline in the liver (Tax-iIEC-KO mice; [5]): recovered up to the same level as those in the control mice
liver injury markers (AST and ALT) (Tax-iIEC-KO mice; [5]): normalization
body weight loss of the Tax-iIEC-KO mice (Tax-iIEC-KO mice; [6]): suppression
concentration of betaine in the liver (Tax-iIEC-KO mice; [6]): recovered up to the same level as those in the control mice
concentration of choline in the liver (Tax-iIEC-KO mice; [6]): recovered up to the same level as those in the control mice
liver injury markers (AST and ALT) (Tax-iIEC-KO mice; [6]): normalization

lysophosphatidylcholine [LPC]
cytotoxicity (LDH released into the medium) (ATP8B1 KO Caco-2 cells): increased cytotoxicity in a dose-dependent manner
cytotoxicity (LDH released into the medium) (Caco-2 cells): did not cause significant cytotoxicity

sodium phenylbutyrate
therapeutic effects on PFIC1 [1]: did not exhibit therapeutic effects on PFIC1
